Converted amounts (≈) assume the structure as drawn. The source made the active and inactive calls. No cut-off for these calls is given here.
What was measured:
Cryptococcus neoformans [1] = test: Antifungal activity against wild type Cryptococcus neoformans H99 assessed as inhibition of fungal growth incubated for 24 to 72 hrs by optical density based analysis; type: functional; conditions: time 24-72 hrs
Cryptococcus neoformans [2] = test: Fungicidal activity against wild type Cryptococcus neoformans H99 assessed as minimum concentration required to kill fungus measured after 48 hrs by time-kill assay; type: functional
[3] = Cytotoxicity against human A549 cells assessed as cell killing measured after 24 to 48 hrs by MTT assay; type: toxicity, cell-based; conditions: time 24-48 hrs, read-out: LD50 (the source's name)
[4] = Selectivity index, ratio of LD50 for human A549 cells to MIC80 for Cryptococcus neoformans H99; type: toxicity; conditions: read-out: Selectivity Index
Cryptococcus neoformans [5] = test: Fungicidal activity against wild type Cryptococcus neoformans H99 assessed as minimum concentration required to kill fungus measured after 24 hrs by time-kill assay; type: functional
Cryptococcus neoformans [6] = test: Fungicidal activity against wild type Cryptococcus neoformans H99 assessed as minimum concentration required to kill fungus measured after 12 hrs by time-kill assay; type: functional
Cryptococcus neoformans [7] = test: Fungistatic activity against wild type Cryptococcus neoformans H99 assessed as inhibition of fungal growth incubated for 12 to 48 hrs by time-kill assay; type: functional, organism-based; conditions: time 12-48 hrs
Candida albicans = test: Antifungal activity against Candida albicans assessed as inhibition of fungal growth incubated for 24 to 72 hrs by optical density based analysis; type: functional; conditions: time 24-72 hrs
Aspergillus fumigatus = test: Antifungal activity against Aspergillus fumigatus assessed as inhibition of fungal growth incubated for 24 to 72 hrs by optical density based analysis; type: functional; conditions: time 24-72 hrs

## O=C(N/N=C/c1cc(Br)ccc1O)c1cc[nH]c1
Cryptococcus neoformans [1]
  MIC80: 4 µg/mL (≈ 13 µM)

## O=C(N/N=C/c1cc(Br)ccc1O)c1cccs1
Cryptococcus neoformans [1]
  MIC80: 8 µg/mL (≈ 24.6 µM)

## O=C(N/N=C/c1c(O)ccc2ccccc12)c1cc(Br)c[nH]1
Cryptococcus neoformans [1]
  MIC80: > 16 µg/mL

## O=C(N/N=C/c1c(O)ccc2ccccc12)c1cc[nH]n1
Cryptococcus neoformans [1]
  MIC80: 4 µg/mL (≈ 14.3 µM)

## O=C(N/N=C/c1c(O)ccc2ccccc12)c1cncc(Br)c1
Cryptococcus neoformans [1]
  MIC80: 0.25 µg/mL (≈ 0.675 µM)
Cryptococcus neoformans [2]
  MFC100: 2 µg/mL (≈ 5.4 µM)
[3]
  CC50: 2 µg/mL (≈ 5.4 µM)
[4]
  selectivity ratio: 8

## O=C(N/N=C/c1ccc(Br)cc1O)c1cc(Br)c[nH]1
Cryptococcus neoformans [1]
  MIC80: 8 µg/mL (≈ 20.7 µM)

## O=C(N/N=C/c1cc(Br)ccc1O)c1ccc(C(F)(F)F)s1
Cryptococcus neoformans [1]
  MIC80: 0.007 µg/mL (≈ 0.0178 µM)
Cryptococcus neoformans [5]
  MFC100: 0.25 µg/mL (≈ 0.636 µM)
[3]
  CC50: 1 µg/mL (≈ 2.54 µM)
[4]
  selectivity ratio: 143

## O=C(N/N=C/c1cc(Br)ccc1O)c1nc2cc(Br)ccc2[nH]1
Cryptococcus neoformans [1]
  MIC80: > 16 µg/mL

## O=C(N/N=C/c1ccc(Br)cc1O)c1cc[nH]n1
Cryptococcus neoformans [1]
  MIC80: 2 µg/mL (≈ 6.47 µM)

## O=C(N/N=C/c1cc(Br)cc(Br)c1O)c1cc(Br)c(Br)o1
Cryptococcus neoformans [6]
  MFC100: 0.12 µg/mL (≈ 0.22 µM)
Cryptococcus neoformans [1]
  MIC80: 0.12 µg/mL (≈ 0.22 µM)
[3]
  CC50: 16 µg/mL (≈ 29.3 µM)
[4]
  selectivity ratio: 133

## O=C(N/N=C/c1cc(Br)ccc1O)c1csc2ccccc12
Cryptococcus neoformans [1]
  MIC80: > 16 µg/mL

## O=C(N/N=C/c1ccc(Br)cc1O)c1ccc[nH]1
Cryptococcus neoformans [1]
  MIC80: 2 µg/mL (≈ 6.49 µM)

## O=C(N/N=C/c1cc(Br)ccc1O)c1cc(Br)co1
Cryptococcus neoformans [7]
  Activity: Active
Cryptococcus neoformans [1]
  MIC80: 0.25 µg/mL (≈ 0.644 µM)
[3]
  CC50: 16 µg/mL (≈ 41.2 µM)
[4]
  selectivity ratio: 64

## O=C(N/N=C/c1ccc(Br)cc1O)c1cccs1
Cryptococcus neoformans [1]
  MIC80: 4 µg/mL (≈ 12.3 µM)

## Cc1ccc2c(C)c(C(=O)N/N=C/c3cc(Br)ccc3O)oc2c1
Cryptococcus neoformans [1]
  MIC80: > 16 µg/mL

## O=C(N/N=C/c1cc(Br)ccc1O)c1cncc(Br)c1
Cryptococcus neoformans [7]
  Activity: Active
Cryptococcus neoformans [1]
  MIC80: 1 µg/mL (≈ 2.51 µM)
[3]
  CC50: 4 µg/mL (≈ 10 µM)
[4]
  selectivity ratio: 4

## O=C(N/N=C/c1cc(Br)ccc1O)c1ccco1
Cryptococcus neoformans [1]
  MIC80: 2 µg/mL (≈ 6.47 µM)

## O=C(N/N=C/c1ccc(Br)cc1O)c1cc[nH]c1
Cryptococcus neoformans [1]
  MIC80: 4 µg/mL (≈ 13 µM)

## OC(Cn1cncn1)(Cn1cncn1)c1ccc(F)cc1F [FLUCONAZOLE]
Cryptococcus neoformans [1]
  MIC80: 2 µg/mL (≈ 6.53 µM)
Candida albicans
  MIC80: 1 µg/mL (≈ 3.27 µM)

## O=C(N/N=C/c1cc(Br)cc(Br)c1O)c1csc(Br)c1
Cryptococcus neoformans [6]
  MFC100: 0.25 µg/mL (≈ 0.518 µM)
Cryptococcus neoformans [1]
  MIC80: 0.12 µg/mL (≈ 0.248 µM)
[3]
  CC50: 16 µg/mL (≈ 33.1 µM)
[4]
  selectivity ratio: 133

## O=C(N/N=C/c1ccc(Br)cc1O)c1ncc(Br)cn1
Cryptococcus neoformans [1]
  MIC80: > 16 µg/mL

## O=C(N/N=C/c1ccc(Br)cc1O)c1cncc(Br)c1
Cryptococcus neoformans [7]
  Activity: Active
Cryptococcus neoformans [1]
  MIC80: 1 µg/mL (≈ 2.51 µM)
[3]
  CC50: > 32 µg/mL
[4]
  selectivity ratio: 64

## O=C(N/N=C/c1cc(Br)ccc1O)c1ccc(C(F)(F)F)o1
Cryptococcus neoformans [1]
  MIC80: 2 µg/mL (≈ 5.3 µM)

## C[C@@H](c1ncncc1F)[C@](O)(Cn1cncn1)c1ccc(F)cc1F [VORICONAZOLE]
Aspergillus fumigatus
  MIC80: 0.125 µg/mL (≈ 0.358 µM)

## O=C(N/N=C/c1cc(Br)cc(Br)c1O)c1cc(Br)c[nH]1
Cryptococcus neoformans [1]
  MIC80: 4 µg/mL (≈ 8.59 µM)

## O=C(N/N=C/c1cc(Br)ccc1O)c1cc(Br)c(Br)o1
Cryptococcus neoformans [1]
  MIC80: 0.25 µg/mL (≈ 0.535 µM)
Cryptococcus neoformans [2]
  MFC100: 0.5 µg/mL (≈ 1.07 µM)
[3]
  CC50: 32 µg/mL (≈ 68.5 µM)

## O=C(N/N=C/c1c(O)ccc2ccccc12)c1ccco1
Cryptococcus neoformans [1]
  MIC80: > 16 µg/mL

## O=C(N/N=C/c1cc(Br)cc(Br)c1O)c1cc(Br)c(Br)s1
Cryptococcus neoformans [6]
  MFC100: 1 µg/mL (≈ 1.78 µM)
Cryptococcus neoformans [1]
  MIC80: 1 µg/mL (≈ 1.78 µM)
[3]
  CC50: > 32 µg/mL
[4]
  selectivity ratio: > 32

## O=C(N/N=C/c1cc(Br)cc(Br)c1O)c1ncc[nH]1
Cryptococcus neoformans [1]
  MIC80: 2 µg/mL (≈ 5.15 µM)

## O=C(N/N=C/c1cc(Br)ccc1O)c1ccc[nH]1
Cryptococcus neoformans [1]
  MIC80: 16 µg/mL (≈ 51.9 µM)

## O=C(N/N=C/c1c(O)ccc2ccccc12)c1ccc(Br)o1
Cryptococcus neoformans [1]
  MIC80: 0.12 µg/mL (≈ 0.334 µM)
Cryptococcus neoformans [2]
  MFC100: 1 µg/mL (≈ 2.78 µM)
[3]
  CC50: 32 µg/mL (≈ 89.1 µM)
[4]
  selectivity ratio: 267

## O=C(N/N=C/c1cc(Br)ccc1O)c1cc[nH]n1
Cryptococcus neoformans [1]
  MIC80: 4 µg/mL (≈ 12.9 µM)

## O=C(N/N=C/c1cc(Br)cc(Br)c1O)c1cccs1
Cryptococcus neoformans [1]
  MIC80: 4 µg/mL (≈ 9.9 µM)

## O=C(N/N=C/c1c(O)ccc2ccccc12)c1cc(Br)c(Br)o1
Cryptococcus neoformans [7]
  Activity: Active
Cryptococcus neoformans [1]
  MIC80: 0.12 µg/mL (≈ 0.274 µM)
[3]
  CC50: 32 µg/mL (≈ 73 µM)
[4]
  selectivity ratio: 267

## O=C(N/N=C/c1cc(Br)ccc1O)c1cc2ccccc2cn1
Cryptococcus neoformans [1]
  MIC80: > 16 µg/mL

Source: ChEMBL document CHEMBL5523691, “SAR study of N'-(Salicylidene)heteroarenecarbohydrazides as promising antifungal agents” (Bioorg Med Chem, 2024)
